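Values below derive from 48-hour exposures of cells grown in 96-well plates, with endpoints linearly interpolated between the two concentrations bracketing the appropriate inhibition level. GI50 = concentration required for 50% inhibition of growth. TGI: total growth inhibition.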
Assays:
Assay in all cases: NCI tumour cell line growth inhibition, 48 h
SK-MEL-28 melanoma = tested on: SK-MEL-28 melanoma
K-562 leukemia = tested on: K-562 leukemia
UACC-62 melanoma = tested on: UACC-62 melanoma
ACHN renal = tested on: ACHN renal
MALME-3M melanoma = tested on: MALME-3M melanoma
SW-620 colon = tested on: SW-620 colon
HCT-116 colon = tested on: HCT-116 colon
COLO 205 colon = tested on: COLO 205 colon
BT-549 breast = tested on: BT-549 breast
MCF7 breast = tested on: MCF7 breast

Structure (SMILES) | TGI (SK-MEL-28 melanoma) | TGI (K-562 leukemia) | TGI (UACC-62 melanoma) | TGI (ACHN renal) | TGI (MALME-3M melanoma) | TGI (SW-620 colon) | TGI (HCT-116 colon) | TGI (COLO 205 colon) | GI50 (BT-549 breast) | TGI (BT-549 breast) | GI50 (K-562 leukemia) | GI50 (UACC-62 melanoma) | GI50 (ACHN renal) | GI50 (MALME-3M melanoma) | GI50 (SW-620 colon) | GI50 (HCT-116 colon) | GI50 (COLO 205 colon) | GI50 (SK-MEL-28 melanoma) | TGI (MCF7 breast) | GI50 (MCF7 breast)
CC(=O)OCC1OC(OCc2ccccc2)C(Br)C(OC(C)=O)C1OC(C)=O (stereo unspecified) | > 100 µM | > 100 µM | > 100 µM | > 100 µM | > 100 µM | > 100 µM | > 100 µM | > 100 µM |  |  |  |  |  |  |  |  |  |  |  | 
CCN(CC)CCN1C(=O)C2C3C(=O)CC(C)(CC3C)C2C1=O (stereo unspecified) |  | > 100 µM | > 100 µM | > 100 µM | > 100 µM | > 100 µM | > 100 µM | > 100 µM | > 100 µM | > 100 µM | > 100 µM | > 100 µM | > 100 µM | > 100 µM | > 100 µM | > 100 µM | > 100 µM |  |  | 
Clc1ccc(OCc2nnc3n2N=C(c2ccc(Br)cc2)CS3)cc1 | > 100 µM | > 100 µM | > 100 µM | > 100 µM | > 100 µM | > 100 µM | > 100 µM |  |  |  |  |  |  |  |  |  |  |  |  | 
C=C1C(=O)O[C@H]2[C@H]1CC/C(Cn1cc(-c3cccc(Cl)c3)nn1)=C\CC[C@@]1(C)O[C@@H]21 | 1.27 µM | 2.44 µM | 2.08 µM | 0.355 µM | 2.92 µM | 1.2 µM | 0.377 µM | 1.69 µM | 0.778 µM | 2.1 µM | 0.405 µM | 0.625 µM | 0.184 µM | 1.2 µM | 0.33 µM | 0.163 µM | 0.417 µM | 0.351 µM |  | 
O=Cc1c(-c2ccccc2)[nH]c2ccccc2c1=O | > 100 µM |  | > 100 µM | > 100 µM | > 100 µM | > 100 µM | > 100 µM | 82.3 µM |  | > 100 µM |  |  |  |  |  |  |  |  | > 100 µM | 
COc1ccc(S(=O)(=O)N[C@H](C(=O)O)c2ccccc2)cc1 | > 100 µM | > 100 µM | > 100 µM | > 100 µM | > 100 µM | > 100 µM | > 100 µM | > 100 µM |  |  |  |  |  |  |  |  |  |  |  | 
COc1ccccc1/C=C/C1=C(C)CCC(c2ccccc2OC)C1C (stereo unspecified) | > 100 µM |  | 40.3 µM | > 100 µM | > 100 µM | > 100 µM | 3.14 µM | 0.498 µM | 0.27 µM | 1.73 µM |  | 0.0684 µM | 0.272 µM | 11.9 µM | 0.138 µM | 0.108 µM | 0.21 µM | 0.24 µM | 1.28 µM | 0.0633 µM
COC(=O)C1(C)CC2C(C)(CCC3(C)C4=CC=C5C(=CC(=O)C(O)=C5C)C4(C)CCC23C)CC1O (stereo unspecified) | 2.1 µM |  | 2.32 µM | 1.53 µM | 2.24 µM |  | 1.89 µM | 1.72 µM |  |  |  |  |  |  |  |  |  |  | 2.86 µM | 
CC[C@]1(O)CC2CN(CCc3c([nH]c4ccccc34)[C@@](C(=O)OC)(c3cc4c(cc3OC)N(C=O)[C@H]3[C@@](O)(C(=O)OC)[C@H](OC(C)=O)[C@]5(CC)C=CCN6CC[C@]43[C@@H]65)C2)C1 (stereo partly specified) | > 50 µM | > 50 µM | > 50 µM | > 50 µM |  | > 50 µM | > 50 µM | < 0.005 µM | 0.00665 µM | 0.149 µM | < 0.005 µM | < 0.005 µM | 0.235 µM |  | < 0.005 µM | < 0.005 µM | < 0.005 µM | < 0.005 µM | > 50 µM | < 0.005 µM
COC1[C@H](NC(=O)OC(C)(C)C)C(=O)N1Cc1ccccc1 (stereo partly specified) | > 100 µM | > 100 µM | > 100 µM | > 100 µM | > 100 µM | > 100 µM | > 100 µM | > 100 µM |  |  |  |  |  |  |  |  |  |  |  | 
c1ccc(-c2n(Cc3ccc4ccccc4c3)cc[n+]2Cc2ccc3ccccc3c2)cc1 | 2.53 µM |  | 1.73 µM | 3.43 µM | 2.56 µM | 2.48 µM | 2.14 µM |  |  |  |  | 0.447 µM | 1.77 µM | 1.14 µM | 1.08 µM | 0.665 µM |  | 1.14 µM |  | 
COc1cc(/C=C/c2ccc(Br)cc2)cc(OC)c1OC | 48 µM | > 37.8 µM | > 72.1 µM | > 100 µM | 76.2 µM | > 100 µM | 17.1 µM | 25.7 µM |  |  |  |  |  |  |  |  |  |  |  | 
COc1cc(-c2ccc(NC(=O)SCCC(=O)O)cc2OC)ccc1NC(=O)SCCC(=O)O | > 100 µM | > 100 µM |  | > 100 µM | > 100 µM | > 100 µM | > 100 µM | > 100 µM |  |  |  |  |  |  |  |  |  |  |  | 
O=S(=O)(c1ccccc1)N1CN2CN(C1)CN(S(=O)(=O)c1ccccc1)C2 | > 100 µM | > 100 µM | > 100 µM | > 100 µM |  | > 100 µM | > 100 µM | > 100 µM |  | > 100 µM |  |  |  |  |  |  |  |  | > 100 µM | 
Cc1cc(C)c2c(c1)N[S@@](=O)S2 | 95.1 µM | 67.9 µM | 37.9 µM | 65.7 µM | 58.1 µM | 16.5 µM | 32.8 µM | 33.5 µM |  |  |  |  |  |  |  |  |  |  |  | 
COC1OC(CBr)C(OC(=O)c2ccccc2)C(OS(=O)(=O)c2ccc(C)cc2)C1Br (stereo unspecified) | > 100 µM | > 100 µM |  | > 100 µM | > 100 µM | > 100 µM | > 100 µM | > 100 µM |  |  |  |  |  |  |  |  |  |  |  | 
O=C1C2c3[nH]c4ccccc4c3C3CCCCCC3C2C(=O)N1c1ccccc1 (stereo unspecified) | 97.7 µM | > 100 µM | > 100 µM | > 91.1 µM | 41.1 µM | > 100 µM | 62.7 µM | > 100 µM |  |  |  |  |  |  |  |  |  |  |  | 
CC(=O)[CH-]C(=O)c1ccccc1.CC(=O)[CH-]C(=O)c1ccccc1.CC(C)CCC[C@H](C)C1CCC2[C@@H]3CC=C4C[C@@H]([O-])CC[C@]4(C)C3CC[C@@]21C.CC(C)CCC[C@H](C)C1CCC2[C@@H]3CC=C4C[C@@H]([O-])CC[C@]4(C)C3CC[C@@]21C.Cl.[Ti+4] (stereo partly specified) | > 25 µM | > 25 µM | > 25 µM | > 25 µM | > 25 µM | > 25 µM | > 25 µM | > 25 µM |  |  | > 25 µM | > 25 µM | > 25 µM | 21.4 µM | > 25 µM | > 25 µM | > 25 µM | > 25 µM |  | 
COc1c(O)cc2c(c1O)C(=O)C1=C(CCCC1)C2=O | 62 µM |  | 48.8 µM | 58.4 µM | 69.3 µM | > 100 µM | 43.2 µM | 40.1 µM |  | > 100 µM |  |  |  |  |  |  |  |  | 80.7 µM | 

Source: PubChem BioAssay (NCI)
